Source: patent publication US5763194A, “Cell separation device” (Unisearch Limited, priority 1993, dated 1998)

Tested on: CD34+ cells
Assay: Separation of CD34+ cells from mobilised blood using shear fractionation and pre-treatment with chymopapain
Type: cell-based, human (patient)
Source text: Cells bound to the semi-permeable substrate of the present invention may be pre-treated with a cell-releasing agent prior to removal by shear stress. The proteolytic enzyme chymopapain has been used to assist the removal of CD34^+ cells bound to a hollow fibre apparatus of the present invention.
A mononuclear cell concentrate was collected from a patient undergoing peripheral stem cell mobilisation with cyclophosphamide and G-CSF.
A Cuprophan hollow-fibre module (binding area ^~ 500 cm^2) was derivatised with antiCD34 monoclonal antibody (clone 9e5) using the hydrazide method as described previously with the following change in protocl. Cuprophan was derivatised with 25% ethylene glycol diglycidyl ether for 2 hours at room temperature.
A total of 1.7×10^8 cells in 4 mls of phosphate buffered saline with 0.5% human Ig and 0.5% bovine serum albumin added was injected into the vertically aligned module using blind-ended filtration. Residual cells in the inlet tubing were flushed with a further 0.5 ml of buffer (blind-ended filtration). The entire loading process took less than 8 minutes. Cells were loaded at approximately 340,000 cells/cm^2.
For cell deposition within the fibre lumen, the module was rotated into the horizontal position. After 4 minutes of settling time, the module was rotated around its long axis over a 12 minute period (2 full revolutions).
For cell recovery the module was returned to the vertical position. The CD34 depleted cell population was recovered in successive 10 ml fractions by incrementing shear stress up to 100 dynes/cm (Fraction numbers 1-5).
Following this, attached cells were incubated with the proteolytic enzyme Chymopapain (DISCASE™) at 400 pKat/ml. The incubation period lasted 20 minutes. During this time released cells were collected at low shear stress (0.2 dynes/cm^2, Fraction 6). Shear fractionation was then used to further purify treated cells. 10 ml fractions were collected at shear stresses of 10, 50 and 100 dynes/cm2.

[1] = Fraction 6, chymopapain + 0.2 dynes/cm^2
[2] = Fraction 7, after chymopapain, 10 dynes/cm^2
[3] = Fraction 8, after chymopapain, 50 dynes/cm^2
[4] = Fraction 9, after chymopapain, 100 dynes/cm^2
[5] = Fraction 10, after chymopapain, 100 dynes/cm^2
[6] = Fraction 11, after chymopapain, ~1000 dynes/cm^2 (3% dextran T2000)

chymopapain: proteolytic enzyme Chymopapain (DISCASE™)
CD34+ incidence [1]: 93.1%
Number of CD34+ cells [1]: 640,000
Total number of cells [1]: 687,000
CD34+ incidence [2]: 86.1%
Number of CD34+ cells [2]: 1,770,000
Total number of cells [2]: 2,060,000
CD34+ incidence [3]: 1.91%
Number of CD34+ cells [3]: 45,100
Total number of cells [3]: 2,360,000
CD34+ incidence [4]: 1.19%
Number of CD34+ cells [4]: 12,400
Total number of cells [4]: 1,040,000
CD34+ incidence [5]: 0.54%
Number of CD34+ cells [5]: 3,060
Total number of cells [5]: 567,000
CD34+ incidence [6]: 0.31%
Number of CD34+ cells [6]: 2,050
Total number of cells [6]: 660,000
CD34 antigen expression of released cells (flow cytometry (BG12-PE), chymopapain released cells): 150-1600 channels
purity of fractions 6 and 7 (fractions 6 and 7): at least 90%
separation yield (CD34+ cells recovered/CD34+ cells input) (fractions 6 and 7 pooled): 53%
